# Source: PMC11277992, “New Zosteropenillines and Pallidopenillines from the Seagrass-Derived Fungus Penicillium yezoense KMM 4679” (Marine Drugs, 2024)
# Read-outs that look alike come from different tables or passages of the source.
# Experiments:
# [1] = tested on: LPS-stimulated RAW264.7 murine macrophages; parameters: method as in PMID 28218691; details: cited from earlier work
# [2] = tested on: Staphylococcus aureus ATCC 21027; experiment: Antimicrobial activity, microbial growth in broth (OD620); type: cell-based; details: ATCC21027, compound at 100 µM, read-out: Inhibition of Microbial Growth, % of Control, S. aureus
# Method: (§1) The yeast-like fungus Candida albicans KMM 455 and bacterial strains Staphylococcus aureus ATCC 21027 and Escherichia coli VKPM (B-7935) (Collection of Marine Microorganisms PIBOC FEB RAS) were cultured on solid-medium Mueller–Hinton broth with agar (16.0 g/L) in a Petri dish at 37 °C for 24 h. The assays were performed in 96-well microplates in an appropriate Mueller–Hinton broth. Each well contained 90 µL of a bacterial or yeast-like fungal suspension (10^6 CFU/mL). Then, 10 µL was added of a compound diluted at concentrations from 1.5 µM to 100.0 µM using twofold dilution (DMSO concentration < 1%). Culture plates were incubated overnight at 37 °C, and the OD620 was measured using a Multiskan FC spectrophotometer (Thermo Scientific Inc., Beverly, MA, USA). The antibiotic gentamicin and antifungal agent nitrofungin were used as positive controls at 1 mg/mL; 1% DMSO in PBS served as a negative control. Examination was performed twice and in triplicate. The results were calculated as a percentage of the control data using SigmaPlot 14.0 software.
# Candida albicans KMM 455 = experiment: as above; type: cell-based; details: Candida albicans, KMM455; compound at 100 µM; read-out: Inhibition of Microbial Growth, % of Control, C. albicans
# Method: as §1
# [3] = tested on: Escherichia coli VKPM (B-7935); experiment: as above; type: cell-based; details: compound at 100 µM, read-out: Inhibition of Microbial Growth, % of Control, E. coli
# Method: as §1
# HeLa cells [4] = experiment: Cell viability after pretreatment with 4-OHT (estrogen receptor inhibitor); type: cell-based, human; details: 14 at 75 µM, 4-OHT at 10 µM
# Method: (§2) To detect the possible target of 14, we used 4-hydroxytamoxifen (4-OHT) at a concentration of 10 µM as a known inhibitor of estrogen receptors (ERs), and the data are presented in Figure 14.
# (§3) Figure 14 The influence of 14 (at a 75 µM) on cell viability in the presence of 4-OHT (at 10 µM). Data are presented as the mean ± SEM. * p-value ≤ 0.05 considered significant.
# PC-3 cells [5] = experiment: as above; type: cell-based, human; details: 14 at 75 µM, 4-OHT at 10 µM
# Method: as §2, §3
# MCF-7 cells [6] = experiment: as above; type: cell-based, human; details: 14 at 75 µM, 4-OHT at 10 µM
# Method: as §2, §3
# [7] = tested on: human prostate PC-3 cancer cells; experiment: Cytotoxic activity (MTT assay); type: cell-based; details: for Cell Viability, % of Control, PC-3: 100 µM, 24 h, MTT; for IC50: Homo sapiens
# Method: (§4) The human prostate cancer cells PC-3 and CRL-1435 and the human embryonic kidney cells HEK-293 and CRL-1573TM were purchased from the American Type Culture Collection (ATCC; Manassas, VA, USA). PC-3 and HEK-293 cells were cultured in DMEM medium containing 10% fetal bovine serum (Biolot, St. Petersburg, Russia) and 1% penicillin/streptomycin (Biolot, St. Petersburg, Russia) at 37 °C in a humidified atmosphere with 5% (v/v) CO2. The cells were incubated in cultural flasks until sub-confluent (~80%).
# (§5) PC-3 cells (5 × 10^3 cells/well) and HEK 293 cells (8 × 10^3 cells/well) were seeded in a 96-well plate and incubated overnight. […] Cell viability was then determined by the MTT (3-(4,5-dimethylthiazol-2-yl)-2,5-diphenyltetrazolium bromide) method according to the manufacturer’s instructions (Sigma-Aldrich, St. Louis, MO, USA). The absorbance of the converted formazan was measured using a Multiskan FC microplate photometer (Thermo Scientific, Waltham, MA, USA) at λ = 570 nm. The results are presented as percentages of the control data.
# HeLa cells [8] = experiment: Migration (scratch) assay; type: cell-based, human; details: 24 h
# MCF-7 cells [9] = experiment: Drug combination study with doxorubicin (MTT); type: cell-based, human; details: 24 h
# [10] = tested on: cervical HeLa cancer cells; experiment: Cytotoxic activity (MTT assay); type: cell-based, human; details: for Cell Viability, % of Control, HeLa: 100 µM, 24 h, MTT; for IC50: Homo sapiens, HeLa, read-out: IC50, HeLa cells
# [11] = tested on: normal human kidney cells; experiment: Cytotoxic activity (MTT assay); type: cell-based; details: 100 µM, 24 h
# Method: (§6) The influence of compounds 1, 2 and 4–14 on the viability of normal human kidney […] cells, as well as human prostate PC-3, cervical HeLa and breast MCF-7 cancer cells, was measured using the MTT assay after 24 h of treatment.
# as §4
# PC-3 cells (5 × 10^3 cells/well) and HEK 293 cells (8 × 10^3 cells/well) were seeded in a 96-well plate and incubated overnight. Then, compounds were added at concentrations of 1–100 μM and incubated for another 24 h. Cell viability was then determined by the MTT (3-(4,5-dimethylthiazol-2-yl)-2,5-diphenyltetrazolium bromide) method according to the manufacturer’s instructions (Sigma-Aldrich, St. Louis, MO, USA). The absorbance of the converted formazan was measured using a Multiskan FC microplate photometer (Thermo Scientific, Waltham, MA, USA) at λ = 570 nm. The results are presented as percentages of the control data.
# HeLa cells [12] = experiment: Colony formation (clonogenic) assay; type: cell-based; details: Homo sapiens, 240 h, 10 days, read-out: half-maximal concentration of the inhibition of HeLa colony formation
# MCF-7 cells [13] = experiment: Migration (scratch) assay; type: cell-based, human; details: 24 h
# [14] = tested on: breast MCF-7 cancer cells; experiment: Cytotoxic activity (MTT assay); type: cell-based, human; details: for Cell Viability, % of Control, MCF-7: 100 µM, 24 h, MTT; for IC50: Homo sapiens
# Method: as §6, §5
# PC-3 cells [15] = experiment: Migration (scratch) assay; type: cell-based, human; details: 24 h
# Method: Silicone 2-well inserts (Ibidi®, Gräfelfing, Germany) were used for formation of a free cell zone in the PC-3 cells’ monolayer. After removing the insert, the gap between the cells was 500 ± 50 μm. The cells were washed twice with PBS after removing the inserts and staining with (5,6)-carboxyfluorescein succinimidyl ester (CFDA SE) (Lumiprobe, Moscow, Russia) fluorescence dye. Then, cells were treated with compound or culture medium only (vehicle control) for 24 h. Cell migration into the wound area was observed under a fluorescence microscope (MIB-2-FL; LOMO, St. Petersburg, Russia) with objective 10× magnification.
# MCF-7 cells [16] = experiment: Colony formation (clonogenic) assay; type: cell-based; details: Homo sapiens, MCF7, 240 h; 10 days; read-out: half-maximal concentration of the inhibition of MCF-7 colony formation
# PC-3 cells [17] = experiment: Colony formation (clonogenic) assay; type: cell-based; details: Homo sapiens, PC-3, 240 h; 10 days; read-out: half-maximal concentration of the inhibition of PC-3 colony formation
# Method: The influence of compounds on colony formation by PC-3 cells was tested by the clonogenic assay. The concentration of PC-3 cells was 0.33 × 10^3/mL. The cells were incubated for 10 days, and then they were fixed with methanol (25 min), staining with 0.5% solution of crystal violet (25 min) and washing with PBS. The counting of grown colonies was carried out using a BIO-PRINT-Cx4 Edge-Fixed Pad-Container (Vilber, Collegien, France) using Bio-Vision Software user and service manual-v18.01 (Vilber, Collegien, France). The results are presented as colony inhibition in comparison with the control.
# [18] = tested on: CoCl2-treated HEK-293 cells; experiment: Cytoprotective activity, CoCl2-mimic hypoxia, cell viability (MTT); type: cell-based, human; details: CoCl2 at 500 µM for 24 h
# Method: The HEK-293 cells were exposed to cobalt chloride (II) at a 500 µM for 1 h and then the compounds were added. After 24 h, the viability of the cells was measured via MTT assay as described earlier.
# [19] = tested on: CoCl2-treated HEK-293 cells; experiment: Lipid peroxidation level (MitoCLox) in CoCl2-treated cells; type: cell-based, human; details: toxic effect of CoCl2; MitoCLox fluorescence dye
# Method: The fluorescence probe MitoCLox (Lumiprobe, Moscow, Russia) was used for the detection of the lipid peroxidation level in CoCl2-treated cells. It was added in the cells for 1 h at a concentration of 200 nM. After 1 h, the cells were washed with PBS and fluorescence was measured in ratiometric mode with λem = 520/590 nm using a PHERAStar FS plate reader (BMG Labtech, Offenburg, Germany). The data were processed with MARS Data Analysis v. 3.01R2 (BMG Labtech, Offenburg, Germany) and calculated as a 520/590 ratio.
structure (smiles),measurement,setting,value
CC1=C[C@H](O)[C@H]2[C@H](O)[C@@H](C)CC[C@@H]2[C@H]1C(=O)CCO [zosteropenilline H],effect on NO levels,[1],downregulate
"CC(=O)OCCC(=O)[C@@H]1[C@H]2CC[C@H](C)[C@@H](O)[C@@H]2C=C[C@@]1(C)O [Compound 14, 1-acetylpallidopenilline A]",inhibition of growth at 100 µM,[2],31.6 ± 7.8%
same,inhibition of growth at 100 µM,Candida albicans KMM 455,0%
same,inhibition of growth at 100 µM,[3],0%
same,cytotoxicity of 14 after pretreatment with 4-OHT versus 14 alone,HeLa cells [4],No significant differences
same,cytotoxicity of 14 after pretreatment with 4-OHT versus 14 alone,PC-3 cells [5],No significant differences
same,cytotoxicity of 14 after pretreatment with 4-OHT versus 14 alone,MCF-7 cells [6],significant decrease in the cytotoxicity
same,"Cell Viability, % of Control, PC-3",[7],45.91 ± 0.67 % of Control
same,IC50,"[7]; PC-3, 24 h, read-out: IC50, PC-3 cell viability",94.2 ± 1.13 µM
same,IC50,"[7]; PC-3, 48 h, read-out: IC50, PC-3 cells",63.4 µM
same,IC50,"[7]; PC-3, 72 h, read-out: IC50, PC-3 cells",48.5 µM
same,migration of HeLa cells,HeLa cells [8],significantly inhibited
same,decrease of MCF-7 cell viability,MCF-7 cells [9]; combination of 14 with doxorubicin at 0.1 µM,50%
same,toxicity to MCF-7 cells compared with doxorubicin alone,MCF-7 cells [9]; combination of 14 with doxorubicin at 1 µM,more toxic
same,"Cell Viability, % of Control, HeLa",[10],53.44 ± 2.14 % of Control
same,IC50,[10]; 48 h,82.7 µM
same,IC50,[10]; 72 h,73.2 µM
same,"Cell Viability, % of Control, HEK-298",[11],96.92 ± 4.83 % of Control
same,IC50,HeLa cells [12],0.96 ± 0.02 µM
same,migration of MCF-7 cells,MCF-7 cells [13],significantly inhibited
same,"Cell Viability, % of Control, MCF-7",[14],23.71 ± 1.05 % of Control
same,IC50,"[14]; MCF7, 24 h, read-out: half-maximal inhibition of the viability of MCF-7 cells",72 ± 2.48 µM
same,IC50,"[14]; MCF7, 48 h, read-out: IC50, MCF-7 cells",54.7 µM
same,IC50,"[14]; MCF7, 72 h, read-out: IC50, MCF-7 cells",41 µM
same,migration of PC-3 cells,PC-3 cells [15],did not affect
same,IC50,MCF-7 cells [16],0.66 µM
same,IC50,PC-3 cells [17],2.48 ± 0.11 µM
"[Cl-].[Cl-].[Co+2] [CoCl2, cobalt (II) chloride, reference compound]",decrease of the viability of HEK-293 cells,[18],75%
same,lipid peroxide levels in HEK-293 cells,[19],significant increase
"C[C@@]1(O)C=C[C@H]2C[C@@H](CO)CC[C@@H]2[C@H]1C(=O)CCO [Compound 12, zosteropenilline J]",inhibition of growth at 100 µM,[2],20.3 ± 1.2%
same,inhibition of growth at 100 µM,Candida albicans KMM 455,6.61 ± 1.12%
same,inhibition of growth at 100 µM,[3],0%
same,"Cell Viability, % of Control, PC-3",[7],87.01 ± 2.71 % of Control
same,"Cell Viability, % of Control, HeLa",[10],66.70 ± 6.64 % of Control
same,"Cell Viability, % of Control, HEK-298",[11],87.01 ± 2.71 % of Control
same,effect on NO levels,[1],downregulate
same,"Cell Viability, % of Control, MCF-7",[14],82.77 ± 1.36 % of Control
C[C@]12C=C[C@H]3C[C@@H](CO)CC[C@@H]3[C@H]1C(=O)CCO2 [zosteropenilline B],effect on NO levels,[1],downregulate
